{
  "source": "patent US20210121833A1",
  "about": "“Producing Homogeneous Metastable Solutions from Heterogeneous Non-condensed Solutes And Liquid Solvents” (priority 2019, published 2021)",
  "key": {"[1]": {"details": "cited from earlier work"}, "wounds and lesions": {"tested_on": "wounds and lesions", "test": "Baths with oxygen saturated metastable solution, preliminary animal studies", "type": "in vivo", "details": "at least 30 mg/l concentration of oxygen"}},
  "data": [
    {"smiles": "O=O", "note": "[oxygen]", "values": [
      {"measurement": "fully saturated DO level", "setting": "[1]; STP", "result": 38, "unit": "mg/L"},
      {"measurement": "solubility limit of oxygen", "setting": "[1]; atmospheric conditions, partial pressure in air of 0.21 atm", "result": "less than 10 mg/l"},
      {"measurement": "benefits of healing", "setting": "wounds and lesions", "result": "Benefits of healing have been seen"}
    ]}
  ]
}
